Assay results: the supplement of paper PMC10733146

Key:
Experiment in all cases: viability relative to DMSO control (fraction); higher = less drug effect (more viable cells)
Settings in all cases: 48 h
[1] = system: primary ALL patient cells (S048)
Procedure, shortened: (§1)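 Cells were incubated for 48 h at 37 °C and 5% CO2 in RPMI-1640 with penicillin/streptomycin, L-glutamine and human serum, at 4 × 10^4 cells per well in 384-well plates with compounds pre-plated at five concentrations, one well each. These were primary mononuclear tumour cells, fresh or cryopreserved, Ficoll-isolated from blood or bone marrow or obtained from processed lymph node. Viability values are CellTiter-Glo luminescence relative to the median of 16 inner DMSO wells.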

[2] = system: primary AML patient cells (S055)
Procedure, shortened: as §1

[3] = system: primary AML patient cells (S091)
Procedure, shortened: as §1

[4] = system: primary MCL patient cells (S041)
Procedure, shortened: as §1

[5] = system: primary MCL patient cells (S068)
Procedure, shortened: as §1

[6] = system: primary T-PLL patient cells (S008)
Procedure, shortened: as §1

[7] = system: primary AML patient cells (S006)
Procedure, shortened: as §1

[8] = system: primary AML patient cells (S079)
Procedure, shortened: as §1

[9] = system: primary MCL patient cells (S063)
Procedure, shortened: as §1

[10] = system: primary FL patient cells (S087)
Procedure, shortened: as §1

[11] = system: primary AML patient cells (S037)
Procedure, shortened: as §1

[12] = system: primary DLBCL patient cells (S082)
Procedure, shortened: as §1

[13] = system: primary MCL patient cells (S053)
Procedure, shortened: as §1

[14] = system: primary CLL patient cells (S031)
Procedure, shortened: as §1

[15] = system: primary AML patient cells (S056)
Procedure, shortened: as §1

[16] = system: primary AML patient cells (S009)
Procedure, shortened: as §1

[17] = system: primary AML patient cells (S072)
Procedure, shortened: as §1

[18] = system: primary FL patient cells (S022)
Procedure, shortened: as §1

[19] = system: primary AML patient cells (S089)
Procedure, shortened: as §1

[20] = system: primary AML patient cells (S012)
Procedure, shortened: as §1

Structure (SMILES): CC(C)C[C@H](NC(=O)CNC(=O)c1cc(Cl)ccc1Cl)B(O)O [Ixazomib]
- viability ([1]; 0.008 µM): 1.04
- viability ([1]; 0.04 µM): 0.94
- viability ([1]; 0.2 µM): 0.961
- viability ([1]; 1 µM): 0.994
- viability ([1]; 5 µM): 1.05
- viability ([2]; 0.008 µM): 0.936
- viability ([2]; 0.04 µM): 0.984
- viability ([2]; 0.2 µM): 0.953
- viability ([2]; 1 µM): 0.992
- viability ([2]; 5 µM): 0.941
- viability ([3]; 0.008 µM): 1.07
- viability ([3]; 0.04 µM): 0.874
- viability ([3]; 0.2 µM): 1.13
- viability ([3]; 1 µM): 0.811
- viability ([3]; 5 µM): 0.8
- viability ([4]; 0.008 µM): 0.87
- viability ([4]; 0.04 µM): 0.97
- viability ([4]; 0.2 µM): 0.934
- viability ([4]; 1 µM): 1.04
- viability ([4]; 5 µM): 1.05
- viability ([5]; 0.008 µM): 0.998
- viability ([5]; 0.04 µM): 0.9
- viability ([5]; 0.2 µM): 1.04
- viability ([5]; 1 µM): 1.04
- viability ([5]; 5 µM): 1.05
- viability ([6]; 0.008 µM): 0.924
- viability ([6]; 0.04 µM): 1.01
- viability ([6]; 0.2 µM): 1.09
- viability ([6]; 1 µM): 1.01
- viability ([6]; 5 µM): 0.961
- viability ([7]; 0.008 µM): 0.929
- viability ([7]; 0.04 µM): 1
- viability ([7]; 0.2 µM): 0.924
- viability ([7]; 1 µM): 1.04
- viability ([7]; 5 µM): 1.01
- viability ([8]; 0.008 µM): 0.988
- viability ([8]; 0.04 µM): 0.914
- viability ([8]; 0.2 µM): 0.888
- viability ([8]; 1 µM): 1
- viability ([8]; 5 µM): 1.02
- viability ([9]; 0.008 µM): 0.919
- viability ([9]; 0.04 µM): 1.02
- viability ([9]; 0.2 µM): 0.921
- viability ([9]; 1 µM): 0.993
- viability ([9]; 5 µM): 0.953
- viability ([10]; 0.008 µM): 0.91
- viability ([10]; 0.04 µM): 0.975
- viability ([10]; 0.2 µM): 0.978
- viability ([10]; 1 µM): 0.96
- viability ([10]; 5 µM): 0.982
- viability ([11]; 0.008 µM): 0.982
- viability ([11]; 0.04 µM): 0.955
- viability ([11]; 0.2 µM): 0.939
- viability ([11]; 1 µM): 0.937
- viability ([11]; 5 µM): 0.955
- viability ([12]; 0.008 µM): 0.858
- viability ([12]; 0.04 µM): 0.964
- viability ([12]; 0.2 µM): 0.815
- viability ([12]; 1 µM): 1.06
- viability ([12]; 5 µM): 1.01
- viability ([13]; 0.008 µM): 0.872
- viability ([13]; 0.04 µM): 0.954
- viability ([13]; 0.2 µM): 0.945
- viability ([13]; 1 µM): 0.972
- viability ([13]; 5 µM): 0.883
- viability ([14]; 0.008 µM): 0.876
- viability ([14]; 0.04 µM): 1.04
- viability ([14]; 0.2 µM): 1.01
- viability ([14]; 1 µM): 1.05
- viability ([14]; 5 µM): 1.02
- viability ([15]; 0.008 µM): 0.755
- viability ([15]; 0.04 µM): 0.894
- viability ([15]; 0.2 µM): 1.11
- viability ([15]; 1 µM): 0.9
- viability ([15]; 5 µM): 0.893
- viability ([16]; 0.008 µM): 1.09
- viability ([16]; 0.04 µM): 0.981
- viability ([16]; 0.2 µM): 1.08
- viability ([16]; 1 µM): 1.03
- viability ([16]; 5 µM): 1.09
- viability ([17]; 0.008 µM): 1.09
- viability ([17]; 0.04 µM): 0.984
- viability ([17]; 0.2 µM): 0.838
- viability ([17]; 1 µM): 0.922
- viability ([17]; 5 µM): 0.934
- viability ([18]; 0.008 µM): 0.894
- viability ([18]; 0.04 µM): 1
- viability ([18]; 0.2 µM): 0.954
- viability ([18]; 1 µM): 0.999
- viability ([18]; 5 µM): 0.979
- viability ([19]; 0.008 µM): 1.07
- viability ([19]; 0.04 µM): 0.69
- viability ([19]; 0.2 µM): 0.968
- viability ([19]; 1 µM): 0.583
- viability ([19]; 5 µM): 0.627
- viability ([20]; 0.008 µM): 0.975
- viability ([20]; 0.04 µM): 0.971
- viability ([20]; 0.2 µM): 1.1
- viability ([20]; 1 µM): 1.01
- viability ([20]; 5 µM): 0.978

Structure (SMILES): Nc1nc(F)nc2c1ncn2[C@@H]1O[C@H](CO)[C@@H](O)[C@@H]1O [Fludarabine]
- viability ([1]; 0.016 µM): 0.991
- viability ([1]; 0.08 µM): 0.881
- viability ([1]; 0.4 µM): 0.337
- viability ([1]; 2 µM): 0.0558
- viability ([1]; 10 µM): 0.028
- viability ([2]; 0.016 µM): 1.05
- viability ([2]; 0.08 µM): 0.976
- viability ([2]; 0.4 µM): 0.937
- viability ([2]; 2 µM): 0.624
- viability ([2]; 10 µM): 0.256
- viability ([3]; 0.016 µM): 0.958
- viability ([3]; 0.08 µM): 1
- viability ([3]; 0.4 µM): 0.737
- viability ([3]; 2 µM): 0.405
- viability ([3]; 10 µM): 0.361
- viability ([4]; 0.016 µM): 1.05
- viability ([4]; 0.08 µM): 1.01
- viability ([4]; 0.4 µM): 0.993
- viability ([4]; 2 µM): 0.647
- viability ([4]; 10 µM): 0.149
- viability ([5]; 0.016 µM): 1.01
- viability ([5]; 0.08 µM): 0.961
- viability ([5]; 0.4 µM): 0.804
- viability ([5]; 2 µM): 0.463
- viability ([5]; 10 µM): 0.194
- viability ([6]; 0.016 µM): 0.988
- viability ([6]; 0.08 µM): 1.02
- viability ([6]; 0.4 µM): 0.942
- viability ([6]; 2 µM): 0.761
- viability ([6]; 10 µM): 0.373
- viability ([7]; 0.016 µM): 1.02
- viability ([7]; 0.08 µM): 0.929
- viability ([7]; 0.4 µM): 0.529
- viability ([7]; 2 µM): 0.115
- viability ([7]; 10 µM): 0.0573
- viability ([8]; 0.016 µM): 1.05
- viability ([8]; 0.08 µM): 1.01
- viability ([8]; 0.4 µM): 0.819
- viability ([8]; 2 µM): 0.453
- viability ([8]; 10 µM): 0.191
- viability ([9]; 0.016 µM): 1.03
- viability ([9]; 0.08 µM): 1
- viability ([9]; 0.4 µM): 0.983
- viability ([9]; 2 µM): 0.845
- viability ([9]; 10 µM): 0.196
- viability ([10]; 0.016 µM): 1
- viability ([10]; 0.08 µM): 0.979
- viability ([10]; 0.4 µM): 0.871
- viability ([10]; 2 µM): 0.661
- viability ([10]; 10 µM): 0.463
- viability ([11]; 0.016 µM): 1.25
- viability ([11]; 0.08 µM): 0.999
- viability ([11]; 0.4 µM): 1.18
- viability ([11]; 2 µM): 0.643
- viability ([11]; 10 µM): 0.455
- viability ([12]; 0.016 µM): 1.03
- viability ([12]; 0.08 µM): 0.94
- viability ([12]; 0.4 µM): 0.908
- viability ([12]; 2 µM): 0.588
- viability ([12]; 10 µM): 0.429
- viability ([13]; 0.016 µM): 1.02
- viability ([13]; 0.08 µM): 0.928
- viability ([13]; 0.4 µM): 0.638
- viability ([13]; 2 µM): 0.238
- viability ([13]; 10 µM): 0.156
- viability ([14]; 0.016 µM): 1.05
- viability ([14]; 0.08 µM): 1.02
- viability ([14]; 0.4 µM): 0.779
- viability ([14]; 2 µM): 0.276
- viability ([14]; 10 µM): 0.0672
- viability ([15]; 0.016 µM): 1.3
- viability ([15]; 0.08 µM): 0.88
- viability ([15]; 0.4 µM): 0.725
- viability ([15]; 2 µM): 0.208
- viability ([15]; 10 µM): 0.0833
- viability ([16]; 0.016 µM): 0.952
- viability ([16]; 0.08 µM): 0.86
- viability ([16]; 0.4 µM): 0.59
- viability ([16]; 2 µM): 0.402
- viability ([16]; 10 µM): 0.359
- viability ([17]; 0.016 µM): 1.02
- viability ([17]; 0.08 µM): 1.08
- viability ([17]; 0.4 µM): 0.824
- viability ([17]; 2 µM): 0.724
- viability ([17]; 10 µM): 0.529
- viability ([18]; 0.016 µM): 1.09
- viability ([18]; 0.08 µM): 1.01
- viability ([18]; 0.4 µM): 0.916
- viability ([18]; 2 µM): 0.757
- viability ([18]; 10 µM): 0.504
- viability ([19]; 0.016 µM): 0.949
- viability ([19]; 0.08 µM): 1.18
- viability ([19]; 0.4 µM): 0.878
- viability ([19]; 2 µM): 0.597
- viability ([19]; 10 µM): 0.401
- viability ([20]; 0.016 µM): 1.02
- viability ([20]; 0.08 µM): 0.979
- viability ([20]; 0.4 µM): 0.987
- viability ([20]; 2 µM): 0.921
- viability ([20]; 10 µM): 0.753
